Data set [1] relates to C. difficile isolate CD1382 (ATCC 630, strain 1382). As to conditions: ATCC 630, 24 h.
Data set [2] relates to C. difficile isolate 1803. As to conditions: Clostridium difficile, 15 min.
The test system of data set [3] is C. difficile isolate CD1875 (ATCC BAA-1875). The following applies: ATCC BAA-1875, 24 h.
For data set [4], the system named is B. fragilis. The following applies: 24 h.
The test system of data set [5] is B. fragilis. Put plainly: Peptide killing kinetics (CFU plating, co-culture). The data set is classed as cell-based. The following applies: for activity on un-targeted organism B. fragilis compared to the levels seen on C. difficile isolate 1803: killing kinetics; for surviving B. fragilis: through 2 hours of STAMP exposure.
Data set [6] has as its system C. difficile isolate CD43255 (ATCC 43255). As to conditions: ATCC 43255, 24 h.
Data set [7] concerns C. difficile isolate CD43601 (ATCC 43601, non-toxigenic). The following applies: ATCC 43601, 24 h.
Data set [8] concerns C. difficile isolate CD1803 (ATCC BAA-1803). As to conditions: ATCC BAA-1803, 24 h.
In another data set the test system is L. casei. As to conditions: 24 h.
A further data set concerns Trubrum. The data set can be described thus: MIC of antimicrobial peptides (Table 3). The data set is classed as cell-based.
A further data set deals with C. difficile. Put plainly: MIC of antimicrobial peptides (Table 3). The data set is classed as cell-based. As to conditions: unit not given.

This is an account of results in patent US20160207969A1, “CLOSTRIDIUM DIFFICILE TARGETING MOIETIES AND CONSTRUCTS COMPRISING SAID MOIETIES” (C3 Jian, Inc., priority 2014, published 2016).

Ends that are not written are not given here.

Consider “LATKLKYEKEHKKMGGGGFLKFLKKFFKKLKYY-NH2 [CD0126 + AF5_4G]”, for which the MIC values in data set [1] is 15.6 µg/mL; in data set [3], 15.6 µg/mL; against B. fragilis [4], more than 250 µg/mL; in [6], 15.6 µg/mL; in data set [7] it was 7.8 µg/mL; in [8] it was 31.3 µg/mL. In addition, the MIC values in the data set on L. casei is more than 250 µg/mL. Moreover, in [2], the “viable C. difficile recovered” value is on record as less than 90%. In addition, the “activity on un-targeted organism B. fragilis compared to the levels seen on C. difficile isolate 1803” value with B. fragilis [5] is “less active”. In the data set with B. fragilis [5], the “surviving B. fragilis” value is “did not significantly decrease”.
As for “VPAKLLRVIKEIPGGFLKFLKKFFKKLK-NH2 [CD0714 + AF5_2G_M7]”, the MIC values is 7.8 µg/mL in data set [1]; 15.6 µg/mL in data set [3]; more than 250 µg/mL with B. fragilis [4]; 3.9 µg/mL in data set [6]; 7.8 µg/mL in data set [7]; 3.9 µg/mL in [8]. In the data set with L. casei, this substance showed an MIC values of more than 250 µg/mL.
For “VPAKLLRVIKKIPGGFLKFLKKFFKKLK-NH2 [CD0714 + AF5_2G_M4]”, the MIC values in data set [1] is 3.9 µg/mL; in data set [3], 15.6 µg/mL; in the data set with B. fragilis [4] it was 62.5 µg/mL; in data set [6] it was 7.8 µg/mL; in data set [7] it was 3.9 µg/mL; in data set [8], 7.8 µg/mL. Also, the MIC values against L. casei came to 125 µg/mL.
Regarding “NILRVLKQVWKGGGKNLRIIRKGIHIIKKY-NH2 (C-terminus assumed) [CD9232_G2_3G]”, the MIC values was determined as 3.9 µg/mL in data set [1]; 31.3 µg/mL in data set [3]; 15.6 µg/mL against B. fragilis [4]; 7.8 µg/mL in data set [6]; 7.8 µg/mL in data set [7]; 7.8 µg/mL in data set [8]. In the data set with L. casei, this substance gave an MIC values of 125 µg/mL. Moreover, the “viable C. difficile recovered” value in [2] was less than 90%. Further, the “activity on un-targeted organism B. fragilis compared to the levels seen on C. difficile isolate 1803” value with B. fragilis [5] was “less active”. Besides, in the data set with B. fragilis [5], the “surviving B. fragilis” value is recorded as “did not significantly decrease”.
With “LATKLKYEKEHKKMGKIFGAIWPLALGALKNLIK-NH2 [CD0126 + Lys_A1_1G]”, the MIC values was 7.8 µg/mL in data set [1]; 15.6 µg/mL in data set [3]; more than 250 µg/mL against B. fragilis [4]; 15.6 µg/mL in data set [6]; 15.6 µg/mL in data set [7]; 7.8 µg/mL in data set [8]. In the data set with L. casei, this substance yielded an MIC values of more than 250 µg/mL. Besides, the “viable C. difficile recovered” value in [2] was less than 90%.
“MIRIRSPTKKKLNRNSISDWKSNTSGRFFY (Antimicrobial peptide) [PF-283]”: in the data set on Trubrum, the “Organism MIC” value is “Trubrum, 50 μM”.
For “VLPFPAIPLSRRRACVAAPRPRSRQRAS (Antimicrobial peptide) [PF-168]”, the “Organism MIC” value in the data set on Trubrum is listed as “Trubrum, 50 μM”.
In the case of “GNFYRLFKDILKGGGKNLRIIRKGIHIIKKY-NH2 (C-terminus assumed) [CD8040_G2_3G]”, the MIC values in data set [1] was 15.6 µg/mL; in data set [3], 62.5 µg/mL; against B. fragilis [4], 62.5 µg/mL; in [6], 31.3 µg/mL; in data set [7], 31.3 µg/mL; in data set [8] it was 15.6 µg/mL. In the data set on L. casei, the MIC values was more than 250 µg/mL. The “viable C. difficile recovered” value in data set [2] was less than 90%. In the data set on B. fragilis [5], the “activity on un-targeted organism B. fragilis compared to the levels seen on C. difficile isolate 1803” value is reported as “less active”. Moreover, in the data set on B. fragilis [5], the “surviving B. fragilis” value is given as “did not significantly decrease”.
“LATLKKYLKEHKKMGKIFGAIWPLALGALKNLIK-NH2 [CD0126 + Lys_A1_M3]”: the MIC values in data set [1] is 3.9 µg/mL; in data set [3], 7.8 µg/mL; in the data set with B. fragilis [4], more than 250 µg/mL; in data set [6] it was 7.8 µg/mL; in data set [7], 7.8 µg/mL; in data set [8], 7.8 µg/mL. The MIC values with L. casei was more than 250 µg/mL.
For “GSVIKKRRKRMAKKKHRKLLKKTRIQRRRAGK [PF-527]”, the “Organism MIC” value in the data set with Trubrum is “Trubrum, 25 μM”.
“VPAKLLRVIDEIPGGKIFGAIWPLALGALKNLIK-NH2 [CD0714 + Lys_A1_2G]”: the MIC values is 31.3 µg/mL in [1]; 31.3 µg/mL in data set [3]; more than 250 µg/mL with B. fragilis [4]; 62.5 µg/mL in [6]; 15.6 µg/mL in data set [7]; 125 µg/mL in [8]. This substance also yielded an MIC values in the data set with L. casei of more than 250 µg/mL.
Regarding “MRFGSLALVAYDSAIKHSWPRPSSVRRLRM (Antimicrobial peptide) [PF-672]”, the “Organism MIC” value with Trubrum was “Trubrum, 0.78 μM”.
For “LSLATFAKIFMTRSNWSLKRFNRL (Antimicrobial peptide) [PF-278]”, the “Organism MIC” value in the data set on Trubrum was “Trubrum, 50 μM”.
Still for that read-out and setting: for “WSRVPGHSDTGWKVWHRW (Antimicrobial peptide) [PF-547]” the value was “Trubrum, 25 μM”; for “MKRRRCNWCGKLFYLEEKSKEAYCCKECRKKAKKVKK (Antimicrobial peptide) [PF-307]”, “Trubrum, 50 μM”.
In the case of “VPAKLLRVIDEIPGGFLKFLKKFFKKLKY-NH2 [CD0714 + AF5_2G]”, the MIC values is 31.3 µg/mL in data set [1]; 62.5 µg/mL in data set [3]; more than 250 µg/mL against B. fragilis [4]; 31.3 µg/mL in data set [6]; 62.5 µg/mL in data set [8]; more than 250 µg/mL in the data set with L. casei.
As for “VPAKLLRVIDEIPKLFKFLRKHLL-NH2 [CD0714 + BD2-21_NG]”, the MIC values in [1] was 7.8 µg/mL; in data set [3], 15.6 µg/mL; with B. fragilis [4] it was more than 250 µg/mL; in data set [6], 7.8 µg/mL; in data set [7] it was 3.9 µg/mL; in data set [8] it was 15.6 µg/mL. The MIC values in the data set on L. casei was 125 µg/mL.
For the substance “FELVDWLETNLGKILKSKSA (Antimicrobial peptide) [PF-522]”, in the data set with C. difficile, the “Organism MIC” value is reported as “C. difficile, 25”.
